Legend:
Assay type in all cases: cell-based, rat
[1] = system: cultured dopaminergic neurons; assay: High-affinity 3H-dopamine uptake after MPP+ induced toxicity in mesencephalic dopaminergic neuron cultures
Protocol: Mesencephalic dopaminergic neuron cultures were prepared as previously described in Pong et al., J Neurochem. 69: 986-994 (1997). Embryonic day 15 (E15) rat fetuses were collected and dissected in ice-cold phosphate-buffered saline (PBS). The ventral piece of tissue compromising the mesencephalic dopaminergic region was dissected out. Dissected pieces of tissue were pooled together and transferred to an enzymatic dissociation medium containing 20 IU/ml papain in Earle's balanced salt solution (Worthington Biochemical, Freehold, N.J., U.S.A.) and incubated for 60 minutes at 37° C. After enzymatic dissociation, the papain solution was aspirated and the tissue mechanically triturated with a fire-polished glass Pasteur pipette in complete medium [equal volumes of minimum essential medium (MEM) and F-12 nutrient mixture (Gibco BRL) supplemented with 0.1 mg/ml apotransferrin and 2.5 μg/ml insulin] containing 2,000 IU/ml DNase and 10 mg/ml ovomucoid protease inhibitor.
For dopamine uptake experiments, single-cell suspensions in complete media were seeded on poly-L-ornithine and laminin coated 24-well plates. The cultures were maintained for seven days prior to experimentation. Cultures were pretreated with various concentrations of the compound of formula (I) (washed with PBS and diluted with media to concentrations of 1 nM to 1000 nM) for 24 hours, then exposed to 10 μM the neurotoxin 1-methyl-4-phenylpyridinium (MPP^+) for 1 hour to assess the neuroprotective effect of the compound of formula (I) in cell culture. Following the 1 hour incubation, media was exchanged three times and fresh compound was added for an additional 48 hours.
More particularly, after 48 hours growth of mesencephalic dopaminergic neuron cultures following MPP^+ exposure, high-affinity ^3H-dopamine uptake was performed using a modified method described by Prochiantz et al., Nature 293: 570-572 (1981). Cultures were washed with pre-warmed phosphate-buffered saline (PBS) containing 5.6 mM glucose and 1 mM ascorbic acid. Cultures were then incubated for 15 minutes at 37° C. with 50 nM ^3H-dopamine (31 Ci/mmol, Du Pont-NEN, Wilmington, Del., U.S.A.). The cultures were washed twice with buffer and lysed with 0.5 N NaOH. The lysate was transferred to a scintillation vial containing Ultima Gold scintillation cocktail and radioactivity was determined with a liquid scintillation counter. Alternatively, culture lysates can be washed twice with buffer, incubated for 2 hours at room temperature with Optiphase Supermix scintillation cocktail (Wallac Scintillation Products, Gaithersburg, Md., USA), and radioactivity measured with a liquid scintillation counter.
MPP^+-induced neurotoxicity in a ^3H-dopamine uptake cell assay was measured. Neuroprotective effects in cell culture were measured by addition of the compound (1 nM to 1000 nM) to the culture in the presence of MPP.

[2] = system: cultured cortical neurons; assay: Neurofilament content in cultured cortical neurons (neurofilament antibody, colorimetric); settings: 72 hours
Protocol: (§1) Dissociated cortical neuron cultures were prepared as previously described [Pong et al., Exp Neurol. 2001 September; 171(1):84-97 (2001)]. Briefly, embryonic day 15 rat fetuses were collected and dissected in ice-cold PBS. Dissected cortices were pooled together and transferred to an enzymatic dissociation medium containing papain. After 30 min, the tissue was mechanically triturated with a fire-polished glass Pasteur pipette. Single-cell suspensions in complete media were seeded on poly-L-ornithine and laminin coated 96-well plates. 24 hours later, cultures were treated with various concentrations of compound of formula (I) for 72 hours. The cultures were then fixed and stained with a neurofilament primary antibody and a peroxidase-tagged secondary antibody. A peroxidase substrate (K-Blue Max) was added and the colorimetric change was measure on a colorimetric plate reader.
as §1, with “(Pong” for “[Pong”, “2001).” for “Exp Neurol. 2001 September; 171(1):84-97 (2001)].”, “ploy-L-ornithine” for “poly-L-ornithine”, “compound” for “compound of formula (I)”, “calorimetric” for “colorimetric”

[3] = system: cultured cortical neurons; assay: Neurite outgrowth (ENO algorithm, Cellomics ArrayScan) in cultured cortical neurons; settings: 72 hours
Protocol: Dissociated cortical neuron cultures were prepared as previously described (Pong et al., cited above, 2001). Briefly, embryonic day 15 rat fetuses were collected and dissected in ice-cold PBS. Dissected cortices were pooled together and transferred to an enzymatic dissociation medium containing papain. After 30 minutes, the tissue was mechanically triturated with a fire-polished glass Pasteur pipette. Single-cell suspensions in complete media were seeded on poly-L-ornithine and laminin coated 96-well plates. After 24 hours, cultures were treated with various concentrations of the compound of formula I for 72 hours. The cultures were then fixed and stained with an anti-tubulin primary antibody (TUJ-1) and a fluorescent-tagged secondary antibody. Neurite outgrowth was determined by using the Enhanced Neurite Outgrowth (ENO) algorithm with the Cellomics ArrayScan and expressed as total neurite length per cell.

[4] = system: cultured dorsal root ganglia; assay: Neurite outgrowth (ENO algorithm, Cellomics ArrayScan) in cultured dorsal root ganglia; settings: 72 hours
Protocol: Dissociated dorsal root ganglia cultures were prepared as previously described [A. Wood et al., “Stimulation of neurite outgrowth by immunophilin ligands: quantitative analysis by Cellomics Array scan” Society for Neuroscience (2004), abstract 104.3] Briefly, postnatal day 3-5 rat pups were euthanized. The spinal columns were removed and individual dorsal root ganglia (DRG) were dissected out. Dissected DRG were pooled together and transferred to an enzymatic dissociation medium containing papain. After 60 minutes, the tissue was mechanically triturated with a fire-polished glass Pasteur pipette. Single-cell suspensions in complete media were seeded on poly-L-ornithine and laminin coated 96-well plates. After 24 hours, cultures were treated with various concentrations of the compound of formula I for 72 hours. The cultures were then fixed and stained with an anti-tubulin primary antibody (TUJ-1) and a fluorescent-tagged secondary antibody. Neurite outgrowth was determined by using the Enhanced Neurite Outgrowth (ENO) algorithm with the Cellomics ArrayScan and expressed as total neurite length per cell.

CC/C1=C\CC(/C(C)=C/C(C)C(C)O)OC(=O)C2CCCCN2C(=O)C(=O)C2(O)OC(CCC2C)CC(O)C(C)C(O)CC(O)CC(O)/C(C)=C/C(C)CC(C)C1O (centres unmarked) [meridamycin]
3H-DOPAMINE UPTAKE (% UNTREATED CONTROL) ([1]; 1 nM meridamycin, 24 h pretreatment, 10 uM MPP+ 1 h, compound further 48 h): 47% | 3H-DOPAMINE UPTAKE (% UNTREATED CONTROL) ([1]; 10 nM meridamycin, 24 h pretreatment, 10 uM MPP+ 1 h, compound further 48 h): 51% | 3H-DOPAMINE UPTAKE (% UNTREATED CONTROL) ([1]; 100 nM meridamycin, 24 h pretreatment, 10 uM MPP+ 1 h, compound further 48 h): 51% | 3H-DOPAMINE UPTAKE (% UNTREATED CONTROL) ([1]; 1000 Nm meridamycin, 24 h pretreatment, 10 uM MPP+ 1 h, compound further 48 h): 64% | EC50 ([1]; Rattus norvegicus, Neuron, relative to maximum protection (84% uptake) afforded by 10 ng/mL GDNF, read-out: EC50 of neuroprotection against MPP+-induced neurotoxicity): 555 nM | NEUROFILAMENT CONTENT (FOLD-INCREASE ABOVE UNTREATED CONTROL) ([2]; 10 nM meridamycin): 1.71 fold | NEUROFILAMENT CONTENT (FOLD-INCREASE ABOVE UNTREATED CONTROL) ([2]; 100 nM meridamycin): 2.24 fold | NEUROFILAMENT CONTENT (FOLD-INCREASE ABOVE UNTREATED CONTROL) ([2]; 1 μM meridamycin): 2.32 fold | NEUROFILAMENT CONTENT (FOLD-INCREASE ABOVE UNTREATED CONTROL) ([2]; 10 μM meridamycin): 2.56 fold | EC50 ([2]; Rattus norvegicus, Cortical neurone, cultured cortical neurons, read-out: EC50 of increased neuronal survival (neurofilament content)): 12 nM | Total Neurite Length (% Above Control) ([3]; 10 nM): 19% | Total Neurite Length (% Above Control) ([3]; 100 nM): 40% | Total Neurite Length (% Above Control) ([3]; 1 μM): 113% | Total Neurite Length (% Above Control) ([3]; 10 μM): 152% | Total Neurite Length (% Above Control) ([4]; 10 nM): 4% | Total Neurite Length (% Above Control) ([4]; 100 nM): 9% | Total Neurite Length (% Above Control) ([4]; 1 μM): 14% | Total Neurite Length (% Above Control) ([4]; 10 μM): 24%

C[n+]1ccc(-c2ccccc2)cc1 [MPP^+, 1-methyl-4-phenylpyridinium, reference compound]
3H-DOPAMINE UPTAKE (% UNTREATED CONTROL) ([1]; 10 uM MPP+ alone, 1 hour exposure, uptake 48 hours later): 40%

B1: GDNF: GDNF, 10 ng/mL, positive control that afforded maximum protection (protein, UniProt P39905 78-211, looked up)
Glial cell line-derived …: SPDKQMAVLPRRERNRQAAAANPENSRGKGRRGQRGKNRGCVLTAIHLNVTDLGLGYETKEELIFRYCSGSCDAAETTYDKILKNLSRNRRLVSDKVGQACCRPIAFDDDLSFLDDNLVYHILRKHSAKRCGCI
maximum protection (3H-dopamine uptake) ([1]; 10 ng/mL GDNF, MPP+-induced neurotoxicity): 84%
